The values below come from patent US20170128435A1, “TREATMENT OF MULTIPLE SCLEROSIS WITH LAQUINIMOD” (Teva Pharmaceutical Industries, Ltd., priority 2009, published 2017).

Where two headings read alike, the source gives them in different places.

For data set [1] the following is noted: (Polman, 2005; Sandberg-Wollheim, 2005); cited from earlier work.
Data set [2] concerns subjects with Relapsing-Remitting Multiple Sclerosis (RRMS). Briefly: Phase III clinical trial BRAVO: laquinimod over placebo, with Interferon β-1a (Avonex®) reference arm. Type of data set: in vivo, human. Conditions: daily oral 0.6 mg, RRMS patients. On the procedure:
A multinational, multicenter, randomized, parallel-group, clinical trial is performed in subjects with RRMS (“BRAVO”). BRAVO is conducted to assess the efficacy, safety and tolerability of laquinimod over placebo in a double-blinded design and of a reference arm of Interferon β-1a (Avonex®) in a rater-blinded design. A multinational, Multicenter, Randomized, Parallel-Group study performed in subjects with Relapsing-Remitting Multiple Sclerosis (RRMS) to assess the efficacy, safety and tolerability of laquinimod over placebo in a double-blind design and of a reference arm of Interferon β-1a (Avonex®)in a rater-blinded design. Treatment phase: 24 months of once-daily oral administration of laquinimod 0.6 mg, matching oral placebo or once-weekly intramuscular administration of Interferon β-1a (Avonex®) 30 mcg. Eligible subjects are randomized in a 1:1:1 ratio (oral laquinimod: oral placebo: Avonex®) and assigned to one of the following three treatment arms: • 1. Laquinimod 0.6 mg per os once daily (400 subjects). The 0.6 mg laquinimod is administered as laquinimod capsules which contains 0.6 mg of Laquinimod Acid per capsule with meglumine. • 2. Matching placebo (for laquinimod) per os once daily (400 subjects). • 3. Interferon β-1a (Avonex®) 30 mcg intramuscular injection once weekly (400 subjects). Subjects on oral treatment are managed in a double-blind manner. Subjects assigned to injectable treatment with Avonex® and their Treating Neurologist/Physician are unblinded to the treatment assignment, but assessed neurologically by an Examining Neurologist/Physician in a blinded manner (potential IM injection sites are covered). During the study, the following assessments are performed (regardless of the treatment assignment) at the specified time points: • 1. Vital signs are measured at each study visit. • 2. A physical examination is performed at months −1 (screening), 0 (baseline) 1, 3, 6, 12, 18 and 24 (termination/early discontinuation). • 3. The following safety clinical laboratory tests are performed: • a. Complete blood count (CBC) with differential—at all scheduled visits. A reticulocyte count is added to the CBC at months 0 (baseline) and 24 (termination/early discontinuation) as well as in occasions of significant decrease in hemoglobin. • b. Serum chemistry (including electrolytes, liver enzymes, direct and total bilirubin, CPK and pancreatic amylase), and urinalysis—at all scheduled visits. • c. Serum TSH, T3 and Free T4 are measured at months 0 (baseline), 6, 12, 18 and 24 (termination/early discontinuation). • d. […] Markers of inflammation (serum conventional C-reactive protein and fibrinogen) are measured at all scheduled visits. • 5. […]

Another data set has as its system relapsing MS. The conditions noted are these: cited from earlier work.
For data set [3], the system named is subjects with relapsing remitting multiple sclerosis (RRMS). Briefly: Phase III clinical trial ALLEGRO: daily oral laquinimod 0.6 mg vs placebo. The conditions noted are these: daily oral 0.6 mg, RRMS patients. Type of data set: in vivo, human. On the procedure: A multinational, multicenter (approximately 175 centers), randomized, double-blinded, parallel-group, placebo-controlled clinical trial (“ALLEGRO”) is conducted to evaluate the safety, tolerability and efficacy of daily oral administration of laquinimod 0.6 mg in subjects with relapsing remitting multiple sclerosis (RRMS). A multinational, multicenter, randomized, double-blind, parallel-group, placebo-controlled study, to evaluate the safety, tolerability and efficacy of daily oral administration of laquinimod 0.6 mg in subjects with relapsing remitting multiple sclerosis (RRMS). Double blind treatment phase: 24 months of once-daily oral administration of daily dose of 0.6 mg laquinimod or matching placebo Eligible subjects are equally randomized into one of the following treatment arms: • 1. Laquinimod capsules 0.6 mg. The 0.6 mg laquinimod is administered as laquinimod capsules which contains 0.6 mg of Laquinimod Acid per capsule with meglumine. • 2. Matching placebo capsules. Subjects are evaluated at study sites for 12 scheduled visits of the double blind phase at months: −1 (screening), 0 (baseline), 1, 2, 3, 6, 9, 12, 15, 18, 21 and 24 (termination/early discontinuation). In case of the 6 months extended study, subjects are evaluated at study sites at months 27 and 30 (termination/early discontinuation of extended study), in this case month 24 is a regular scheduled visit. The following assessments are performed at specified time points: • 1. Vital signs are measured at each study visit. • 2. A physical examination is performed at months −1 (screening), 0 (baseline) 1, 3, 6, 12, 18 and 24 (termination/early discontinuation core study). In case of the 6 months extended study, additional examination is performed at month 30 (termination/early discontinuation of extended study). • 3. The following safety clinical laboratory tests are performed: • a. Complete blood count (CBC) with differential—at all scheduled visits. A reticulocyte count is added to the CBC at months 0 (baseline) and 24/30 (termination/early discontinuation). • b. Serum chemistry (including electrolytes, liver enzymes, direct and total bilirubin and pancreatic amylase and CPK), and urinalysis—at all scheduled visits. • c. A rapid urine β-hCG test is performed in women of child-bearing potential at baseline (month 0) and at each scheduled study visit thereafter (at site). • d. β-hCG in women of child-bearing potential is performed at all scheduled visits. • e. Starting after visit Month 3 a rapid urine β-hCG test is performed in women of child-bearing potential every 28 (±2) days. The subject is contacted by telephone within 72 hours after the test is scheduled to be performed and asked specific questions regarding the test. In case of suspected pregnancy (positive urine β-hCG test result), the caller makes sure that the study drug has been discontinued and the subject is instructed to arrive at the site as soon as possible with all study drugs. • 4. Markers of inflammation (serum conventional C-reactive protein and fibrinogen)—at screening, baseline and all scheduled visits thereafter. • 5. During the first 3 months periodical phone calls are placed by the site personnel every two weeks. […] ECG is performed at months −1 (screening; additional recording, up to 30 minutes apart is performed if QTc is […] 450 msec), (baseline; three recordings, 15 minutes apart), 1, 2, 3, 6, 12, 18 and 24 (termination/early discontinuation). In case of the 6 months extended study, ECG is performed at month 30 (termination/early discontinuation of the extended study). • 7. Chest X-ray is performed at months −1 (screening), (if not performed within 7 months prior to the screening visit). • 8. Adverse Events (AEs) are monitored throughout the study. • 9. Concomitant medications are monitored throughout the study. • 10. […]

Data set [4] concerns Relapsing-Remitting Multiple Sclerosis. Conditions: 0.3 mg/day oral dose (Comi, 2007); cited from earlier work.

With `CCN(C(=O)c1c(O)c2c(Cl)cccc2n(C)c1=O)c1ccccc1` [Laquinimod sodium], the oral bioavailability result in data set [1] is on record as “high”.

As to `CCN(C(=O)c1c(O)c2c(Cl)cccc2n(C)c1=O)c1ccccc1` [laquinimod], in data set [2], the “accumulation of physical disability, as measured by the MSFC score at the end of the treatment period” value is “reduces”; the “accumulation of physical disability, as measured by time to confirmed progression of EDSS” value was “reduces”; the “brain atrophy, as measured by percent brain volume change from baseline to the end of the treatment period” value is recorded as “reduces”. Besides, the “number of confirmed relapses (directly related to the relapse rate)” value in data set [2] (treatment period) is “reduces”. Besides, in the data set with relapsing MS (0.3 mg/day oral dose, relapsing MS (RRMS and SPMS) (Polman, 2005)), the “development of active MRI lesions” value is “reduce”. Further, the “development of active MRI lesions” value in the data set on relapsing MS (relapsing MS, dose not stated (Polman, 2005)) is “reduce”. In addition, in data set [3], the “MRI-monitored disease activity: cumulative number of enhancing lesions on T1-weighted images” value was “reduces”; the “MRI-monitored disease activity: cumulative number of new T2 lesions” value was “reduces”; the “MRI-monitored disease activity: cumulative number of new hypointense lesions on T1-scans” value is “reduces”; the “accumulation of physical disability, as measured by the time to confirmed progression of EDSS” value was “reduces”. For the same compound, the relapse rate entry in data set [3] (double blind study period) is recorded as “reduces”. In addition, the “number of confirmed relapses during the double blind study period” value in data set [3] (vs placebo) is listed as “reduces”. Besides, the “MRI and clinical effect as compared to placebo” value in data set [4] is “neither MRI nor clinical effect”.
